From US11655221B2, “Certain (2S)-N-[(1S)-1-cyano-2-phenylethyl]-1,4-oxazepane-2-carboxamides as dipeptidyl peptidase 1 inhibitors” (AstraZeneca AB, priority 2014, dated 2023)

Columns and labels:
[1] = Test B: In-vitro competitive aortic tissue binding assay; parameters: species or system rat; conditions: 100 μM test compound, competition with [14C]-labelled WO2010/128324 Ex. 3, categories strong binder, medium binder, no binder
Experimental: Test B: In-Vitro Competitive Aortic Tissue Binding Assay
Aortic homogenate was prepared from the thoracic aortae of Han Wistar rats. Freshly isolated to thoracic aortae were frozen, and later thawed and stripped of non-elastic material.
Homogenate concentration was adjusted to 30 mg/mL in Puck's saline, and aliquots were stored at −80° C. until use. Positive and negative control compounds and test compounds were made up to 100 mM in DMSO, and added to 1 mL aliquots of aortic homogenate in Puck's saline for a final concentration of 100 μM. Homogenate samples were pre-incubated with test compounds at 37° C., rotating, overnight. [^14C]4-Amino-N-[(1S)-1-cyano-2-(4′-cyanobiphenyl-4-yl)ethyl]tetrahydro-2H-pyran-4-carboxamide was then added to all samples to a final concentration of 100 μM, and samples were incubated at 37° C., rotating, for a further 2 h. Protein was precipitated from each sample by the addition of 10 mL acetone, pre-chilled to −20° C. Samples were left overnight at −20° C. to allow complete precipitation. Precipitate was pelleted by centrifugation at 4,500×g at 4° C. for 20 min, an aliquot of supernatant was removed for analysis, and the remainder of the supernatant discarded. Precipitate was washed by resuspension in 10 mL 80% methanol in distilled water, and re-pelleted by centrifugation at 4,500×g at 4° C. for 20 min. […] After final wash, precipitate was air-dried, and dissolved overnight in 1 mL NCSII Tissue Solubiliser. 1 mL aliquots of supernatants were added to 5 mL Ultima Gold scintillation fluid (Perkin Elmer, MA, U.S.A.), and 1 mL solubilised pellets were added to 5 mL Hionic-Fluor scintillation fluid (Perkin Elmer, Mass., U.S.A.). Radioactivity of samples was determined on a Beckman LS6500 multipurpose scintillation counter (Beckman Coulter, IN, U.S.A.). […] Duplicate samples were tested for each compound on each experimental occasion, and at least two experiments were run for each test compound. […] 1-way ANOVA and Bonferroni's multiple comparison tests were performed to calculate significance of differences from vehicle control.

[2] = molecular target: recombinant human DPP1 (rhDPP1) (Homo sapiens (Human), UniProt P53634); test: Test A1: Fluorescence assay for recombinant human (RH) DPP1; format: biochemical; conditions: Test A1, H-Gly-Arg-AMC substrate, 22° C. (Examples 1-35)
Experimental: Test A1: Fluorescence Assay for Recombinant Human (RH) DPP1
The activity of DPP1 was determined by measuring the enzymatic release of aminomethyl coumarin (AMC) from the peptide substrate (H-Gly-Arg-AMC), which leads to an increase in fluorescence intensity at λex=350 nm and λem=450 nm. The assay was carried out in black 384 well plates in a final volume of 50 μl at 22° C. The assay conditions contained the following: 25 mM piperazine buffer pH 5.0; 50 mM NaCl, 5 mM DTT; 0.01% (v/v) Triton X-100; 100 μM H-Gly-Arg-AMC and rhDPP1 (˜50 pM). […] Routinely, inhibitors were pre-incubated with rhDPP1 for 30-60 min prior to the addition of the peptide substrate to start the reaction for a further 60 min at 22° C.

[3] = Quantitative whole-body autoradiography (QWBA), aortic retention; format: in vivo

Chain of recombinant human DPP1 (rhDPP1) (P53634 231-394): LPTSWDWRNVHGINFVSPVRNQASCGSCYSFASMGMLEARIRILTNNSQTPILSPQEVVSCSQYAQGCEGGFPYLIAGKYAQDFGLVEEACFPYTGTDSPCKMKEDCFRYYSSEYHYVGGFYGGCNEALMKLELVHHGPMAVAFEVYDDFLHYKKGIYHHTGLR
Chain of recombinant human DPP1 (rhDPP1) (P53634 25-143): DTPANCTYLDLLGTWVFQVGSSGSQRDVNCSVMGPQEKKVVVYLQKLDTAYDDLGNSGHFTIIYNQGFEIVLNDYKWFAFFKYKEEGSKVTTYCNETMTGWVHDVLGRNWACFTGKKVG
Chain of recombinant human DPP1 (rhDPP1) (P53634 395-463): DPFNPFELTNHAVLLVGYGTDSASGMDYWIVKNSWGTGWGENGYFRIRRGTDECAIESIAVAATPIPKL

Row | Compound | Aortic Tissue Binding [1] | DPP1 activity, pIC50 [2] | aortic retention in rat QWBA studies [3]
1 | Cn1c(=O)oc2ccc(-c3ccc(C[C@@H](C#N)NC(=O)C4(N)CCOCC4)cc3)cc21 [WO2010/128324 (Example 17)] | Strong binder | – | –
2 | Cn1c(=O)oc2ccc(-c3ccc(C[C@@H](C#N)NC(=O)[C@@H]4CNCCCO4)cc3)cc21 [Example 2, (2S)—N-{(1S)-1-Cyano-2-[4-(3-methyl-2-oxo-2,3-dihydro-1,3-benzoxazol-5-yl)phenyl]ethyl}-1,4-oxazepane-2-carboxamide] | No binder | – | –
3 | CN1C(=O)CNc2ccc(-c3ccc(C[C@@H](C#N)NC(=O)[C@@H]4CNCCCO4)cc3)cc21 [Example 35, (2S)—N-{(1S)-1-Cyano-2-[4-(4-methyl-3-oxo-1,2,3,4-tetrahydroquinoxalin-6-yl)phenyl]ethyl}-1,4-oxazepane-2-carboxamide] | – | 7.61 | –
4 | N#Cc1ccc(-c2ccc(C[C@@H](C#N)NC(=O)C3(N)CCOCC3)cc2)cc1 [WO2010/128324 (Ex. 3), 4-amino-N-[(1S)-1-cyano-2-(4′-cyanobiphenyl-4-yl)ethyl]tetrahydro-2H-pyran-4-carboxamide] | Strong binder (reference) | – | high level of aortic retention
5 | Cn1c(=O)oc2ccc(-c3ccc(C[C@@H](C#N)NC(=O)[C@@H]4CCCCN4)cc3)cc21 [WO2009/074829 (Example 96)] | Medium binder | – | –
6 | N#Cc1ccc(-c2ccc(C[C@@H](C#N)NC(=O)[C@@H]3CCCCN3)cc2)cc1 [WO2009/074829 (Example 24)] | Binder | – | –
